Reference: paper PMC2730633 (Bioorganic & medicinal chemistry letters, 2009)

Tests used:
EphA7 = EphA7 (Homo sapiens, UniProt Q15375); assay: KinomeScan dose-response dissociation constant; type: binding; details: for inhibition of EphA7: KinomeScan binding
EphA6 = target: T1, EphA6 (Homo sapiens, UniProt Q9UF33); assay: KinomeScan dose-response dissociation constant; details: KinomeScan binding
T1 sequence (Q9UF33 23-1036): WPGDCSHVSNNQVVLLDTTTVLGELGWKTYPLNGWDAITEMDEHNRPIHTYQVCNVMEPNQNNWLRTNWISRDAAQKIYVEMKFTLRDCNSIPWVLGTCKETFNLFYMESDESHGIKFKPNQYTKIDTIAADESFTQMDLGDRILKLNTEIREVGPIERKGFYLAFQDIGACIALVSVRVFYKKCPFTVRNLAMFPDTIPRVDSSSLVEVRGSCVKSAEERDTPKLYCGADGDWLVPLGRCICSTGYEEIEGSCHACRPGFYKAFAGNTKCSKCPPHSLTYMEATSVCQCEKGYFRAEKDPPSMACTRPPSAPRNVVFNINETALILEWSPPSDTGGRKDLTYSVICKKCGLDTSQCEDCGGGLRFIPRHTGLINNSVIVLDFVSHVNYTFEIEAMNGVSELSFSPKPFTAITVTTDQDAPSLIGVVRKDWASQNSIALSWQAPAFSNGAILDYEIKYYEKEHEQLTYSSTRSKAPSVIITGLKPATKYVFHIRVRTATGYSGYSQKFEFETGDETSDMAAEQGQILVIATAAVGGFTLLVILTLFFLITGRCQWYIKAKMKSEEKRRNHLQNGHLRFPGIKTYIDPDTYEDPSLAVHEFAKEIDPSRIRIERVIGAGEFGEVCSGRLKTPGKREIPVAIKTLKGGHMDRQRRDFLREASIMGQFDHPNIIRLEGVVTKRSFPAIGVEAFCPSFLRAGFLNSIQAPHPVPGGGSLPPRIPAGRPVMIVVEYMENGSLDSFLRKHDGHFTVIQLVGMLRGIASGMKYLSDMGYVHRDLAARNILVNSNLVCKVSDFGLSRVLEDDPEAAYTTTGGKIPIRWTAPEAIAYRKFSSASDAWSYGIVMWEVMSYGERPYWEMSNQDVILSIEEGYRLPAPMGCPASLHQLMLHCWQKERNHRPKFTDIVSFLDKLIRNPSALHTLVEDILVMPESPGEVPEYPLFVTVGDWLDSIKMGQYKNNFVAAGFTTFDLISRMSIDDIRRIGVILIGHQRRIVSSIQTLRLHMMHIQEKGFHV

Tel-Src = Tel-Src (Homo sapiens, UniProt P12931+P41212); assay: Tyrosine kinase transformed Ba/F3 cellular assay; type: cell-based; details: for cellular activity against Src-family kinases (Tel-Src): Ba/F3
Tel-Src, sequence (P12931 270-523 limits assumed, one chain of several): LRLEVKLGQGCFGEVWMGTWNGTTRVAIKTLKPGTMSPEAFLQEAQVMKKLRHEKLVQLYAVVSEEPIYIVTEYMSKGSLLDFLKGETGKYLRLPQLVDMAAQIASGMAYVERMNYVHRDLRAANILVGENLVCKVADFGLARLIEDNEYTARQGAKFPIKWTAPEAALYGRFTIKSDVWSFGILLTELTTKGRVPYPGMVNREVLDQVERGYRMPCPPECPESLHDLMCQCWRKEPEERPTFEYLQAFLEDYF

b-raf = b-raf (Homo sapiens, UniProt P15056); assay: Cellular activity against b-raf; type: cell-based
b-raf, sequence (P15056 whole entry, species assumed): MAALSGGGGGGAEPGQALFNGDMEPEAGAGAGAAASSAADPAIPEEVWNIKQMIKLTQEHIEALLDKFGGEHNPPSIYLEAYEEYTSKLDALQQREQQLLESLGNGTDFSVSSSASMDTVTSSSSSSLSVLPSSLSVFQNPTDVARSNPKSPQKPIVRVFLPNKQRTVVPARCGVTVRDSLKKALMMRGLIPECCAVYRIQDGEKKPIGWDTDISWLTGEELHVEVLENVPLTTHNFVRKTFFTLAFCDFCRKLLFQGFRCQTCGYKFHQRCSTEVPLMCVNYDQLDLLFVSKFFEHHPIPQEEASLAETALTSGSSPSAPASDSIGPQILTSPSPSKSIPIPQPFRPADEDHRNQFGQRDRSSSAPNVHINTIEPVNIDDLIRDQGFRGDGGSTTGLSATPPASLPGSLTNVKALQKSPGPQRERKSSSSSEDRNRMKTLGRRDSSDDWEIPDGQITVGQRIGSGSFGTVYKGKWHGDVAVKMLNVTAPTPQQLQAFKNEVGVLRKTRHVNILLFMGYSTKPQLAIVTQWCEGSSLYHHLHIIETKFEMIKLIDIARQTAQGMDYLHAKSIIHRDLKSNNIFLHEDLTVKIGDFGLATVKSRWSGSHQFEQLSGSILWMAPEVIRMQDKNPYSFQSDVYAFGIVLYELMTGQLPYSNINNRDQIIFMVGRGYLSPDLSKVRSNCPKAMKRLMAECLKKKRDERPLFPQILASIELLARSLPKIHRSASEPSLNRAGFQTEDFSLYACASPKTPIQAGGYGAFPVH

[1] = test system: b-raf, CSF1R, DDR1, DDR2, EphA2, EphA5, EphA8, EphB1, EphB2, EphB3, Frk, Kit, Lck, p38α, p38β, PDGFRα, PDGFRβ, Raf1; assay: Ambit KinomeScan panel of 402 kinases, single concentration; type: binding; details: single concentration of 10 µM
Tel-Lyn = Tel-Lyn (Homo sapiens, UniProt P07948+P41212); assay: Tyrosine kinase transformed Ba/F3 cellular assay; type: cell-based; details: for cellular activity against Src-family kinases (Tel-Lyn): Ba/F3
Tel-Lyn, sequence (P07948 247-501 limits assumed, one chain of several): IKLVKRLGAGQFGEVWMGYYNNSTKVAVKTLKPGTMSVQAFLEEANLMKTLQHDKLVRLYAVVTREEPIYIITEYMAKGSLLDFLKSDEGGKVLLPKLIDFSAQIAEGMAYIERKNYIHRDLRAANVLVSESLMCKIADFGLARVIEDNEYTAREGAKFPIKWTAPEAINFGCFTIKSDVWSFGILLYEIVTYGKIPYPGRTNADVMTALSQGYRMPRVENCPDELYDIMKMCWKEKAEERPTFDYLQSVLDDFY

EphB1 = target: T2, EphB1 (Homo sapiens, UniProt P54762); assay: KinomeScan dose-response dissociation constant; details: KinomeScan binding
T2 sequence (P54762 18-984): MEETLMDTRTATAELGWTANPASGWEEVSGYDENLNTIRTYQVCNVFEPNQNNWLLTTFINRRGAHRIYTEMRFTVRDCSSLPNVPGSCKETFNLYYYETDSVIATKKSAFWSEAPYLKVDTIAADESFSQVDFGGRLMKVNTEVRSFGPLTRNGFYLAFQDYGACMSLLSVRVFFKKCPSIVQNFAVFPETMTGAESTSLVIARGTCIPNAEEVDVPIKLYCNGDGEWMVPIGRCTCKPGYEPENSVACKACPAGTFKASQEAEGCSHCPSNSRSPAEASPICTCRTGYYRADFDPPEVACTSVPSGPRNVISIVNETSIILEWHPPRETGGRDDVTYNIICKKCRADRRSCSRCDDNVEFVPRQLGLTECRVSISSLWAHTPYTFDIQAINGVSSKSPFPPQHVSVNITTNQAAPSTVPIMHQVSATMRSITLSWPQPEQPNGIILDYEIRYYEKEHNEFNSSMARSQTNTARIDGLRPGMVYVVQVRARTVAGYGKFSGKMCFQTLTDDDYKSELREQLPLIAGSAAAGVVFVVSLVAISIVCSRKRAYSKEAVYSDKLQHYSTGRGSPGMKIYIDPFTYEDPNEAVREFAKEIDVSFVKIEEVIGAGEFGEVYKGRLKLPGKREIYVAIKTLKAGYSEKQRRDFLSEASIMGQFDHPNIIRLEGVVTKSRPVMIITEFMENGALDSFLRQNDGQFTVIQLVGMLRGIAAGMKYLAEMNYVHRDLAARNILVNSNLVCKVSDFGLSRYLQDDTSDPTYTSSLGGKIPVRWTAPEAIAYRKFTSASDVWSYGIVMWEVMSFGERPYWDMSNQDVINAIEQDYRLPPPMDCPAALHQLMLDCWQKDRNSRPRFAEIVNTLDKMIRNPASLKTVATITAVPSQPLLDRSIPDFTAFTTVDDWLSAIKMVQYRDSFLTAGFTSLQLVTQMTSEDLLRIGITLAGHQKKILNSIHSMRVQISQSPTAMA

Bcr-Abl = Bcr-Abl (Homo sapiens, UniProt P00519+P11274); assay: Tyrosine kinase transformed Ba/F3 cellular assay; type: cell-based; details: for cross reactivity with Bcr-Abl: Ba/F3 panel screen
Bcr-Abl, sequence (P00519 28-1130 limits assumed, one chain of several): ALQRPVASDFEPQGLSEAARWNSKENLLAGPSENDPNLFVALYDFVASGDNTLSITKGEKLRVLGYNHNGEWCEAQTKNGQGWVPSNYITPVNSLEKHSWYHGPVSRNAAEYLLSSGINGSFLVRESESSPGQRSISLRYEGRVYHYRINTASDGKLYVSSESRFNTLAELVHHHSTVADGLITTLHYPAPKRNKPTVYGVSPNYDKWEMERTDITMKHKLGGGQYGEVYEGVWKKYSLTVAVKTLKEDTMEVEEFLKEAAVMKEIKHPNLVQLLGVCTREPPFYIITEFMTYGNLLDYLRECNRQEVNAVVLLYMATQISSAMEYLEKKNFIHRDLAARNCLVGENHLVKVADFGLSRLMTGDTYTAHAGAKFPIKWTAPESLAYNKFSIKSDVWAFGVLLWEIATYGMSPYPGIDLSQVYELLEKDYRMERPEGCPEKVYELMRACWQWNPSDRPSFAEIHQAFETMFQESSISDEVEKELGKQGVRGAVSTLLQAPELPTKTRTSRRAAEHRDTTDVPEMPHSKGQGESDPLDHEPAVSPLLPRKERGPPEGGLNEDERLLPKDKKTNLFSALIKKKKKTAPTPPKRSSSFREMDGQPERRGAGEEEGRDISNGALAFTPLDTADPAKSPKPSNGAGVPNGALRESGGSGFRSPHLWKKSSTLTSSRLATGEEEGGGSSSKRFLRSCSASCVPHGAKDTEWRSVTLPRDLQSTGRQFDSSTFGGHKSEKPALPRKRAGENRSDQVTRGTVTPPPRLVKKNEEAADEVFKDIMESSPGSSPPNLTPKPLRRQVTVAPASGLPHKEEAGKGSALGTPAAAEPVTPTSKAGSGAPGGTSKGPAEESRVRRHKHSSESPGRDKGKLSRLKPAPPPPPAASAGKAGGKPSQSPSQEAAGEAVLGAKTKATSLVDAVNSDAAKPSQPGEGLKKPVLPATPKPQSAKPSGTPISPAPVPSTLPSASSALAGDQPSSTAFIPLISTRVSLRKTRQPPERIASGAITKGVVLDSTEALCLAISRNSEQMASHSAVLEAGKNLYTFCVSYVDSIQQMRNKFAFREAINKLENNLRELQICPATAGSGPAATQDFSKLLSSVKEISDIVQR

Tel fusion of EphA3 = target: T3, Tel fusion of EphA3 (Homo sapiens, UniProt P29320); assay: Tyrosine kinase transformed Ba/F3 cellular assay; type: cell-based; details: Ba/F3 cells transformed with Tel fusion of EphA3
T3 sequence (P29320 621-882): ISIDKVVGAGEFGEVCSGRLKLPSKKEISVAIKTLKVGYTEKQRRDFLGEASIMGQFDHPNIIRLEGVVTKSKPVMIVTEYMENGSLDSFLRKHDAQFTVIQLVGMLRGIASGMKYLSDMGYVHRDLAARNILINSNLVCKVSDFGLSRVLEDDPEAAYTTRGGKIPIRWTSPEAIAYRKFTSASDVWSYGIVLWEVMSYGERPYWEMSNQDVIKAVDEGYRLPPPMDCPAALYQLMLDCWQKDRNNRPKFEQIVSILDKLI
T3 sequence (P41212 40-124 partner): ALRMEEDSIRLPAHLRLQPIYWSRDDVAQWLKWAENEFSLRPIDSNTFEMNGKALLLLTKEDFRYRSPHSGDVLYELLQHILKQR

Eph-family kinases = assay: Invitrogen SelectScreen biochemical kinase activity assay; details: [Km,app] ATP, starting concentration 10 µM
FGFR2 = FGFR2 (Homo sapiens, UniProt P21802); assay: Tyrosine kinase transformed Ba/F3 cellular assay; type: cell-based; details: Ba/F3 panel screen, printed FGFR2/3/4
FGFR2, sequence (P21802 481-770 limits assumed, species assumed): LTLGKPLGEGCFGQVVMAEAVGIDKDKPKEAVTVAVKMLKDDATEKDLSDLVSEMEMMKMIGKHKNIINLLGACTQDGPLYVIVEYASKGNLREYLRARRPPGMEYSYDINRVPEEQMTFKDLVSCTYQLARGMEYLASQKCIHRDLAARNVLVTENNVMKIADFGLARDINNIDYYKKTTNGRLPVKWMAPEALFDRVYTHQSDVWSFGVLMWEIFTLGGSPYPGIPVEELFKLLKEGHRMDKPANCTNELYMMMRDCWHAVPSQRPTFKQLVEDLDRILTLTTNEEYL

FGFR3 = FGFR3 (Homo sapiens, UniProt P22607); assay: Tyrosine kinase transformed Ba/F3 cellular assay; type: cell-based; details: Ba/F3 panel screen, printed FGFR2/3/4
FGFR3, sequence (P22607 472-761 limits assumed): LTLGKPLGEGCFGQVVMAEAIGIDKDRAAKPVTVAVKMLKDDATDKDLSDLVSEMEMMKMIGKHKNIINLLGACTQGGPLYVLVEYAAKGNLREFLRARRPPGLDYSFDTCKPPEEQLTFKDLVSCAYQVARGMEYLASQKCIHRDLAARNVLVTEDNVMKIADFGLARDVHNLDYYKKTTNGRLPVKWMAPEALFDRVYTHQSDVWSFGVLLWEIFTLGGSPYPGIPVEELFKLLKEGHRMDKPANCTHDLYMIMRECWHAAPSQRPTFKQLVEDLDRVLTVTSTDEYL

FGFR4 = FGFR4 (Homo sapiens, UniProt P22455); assay: Tyrosine kinase transformed Ba/F3 cellular assay; type: cell-based; details: Ba/F3 panel screen, printed FGFR2/3/4
FGFR4, sequence (P22455 467-755 limits assumed): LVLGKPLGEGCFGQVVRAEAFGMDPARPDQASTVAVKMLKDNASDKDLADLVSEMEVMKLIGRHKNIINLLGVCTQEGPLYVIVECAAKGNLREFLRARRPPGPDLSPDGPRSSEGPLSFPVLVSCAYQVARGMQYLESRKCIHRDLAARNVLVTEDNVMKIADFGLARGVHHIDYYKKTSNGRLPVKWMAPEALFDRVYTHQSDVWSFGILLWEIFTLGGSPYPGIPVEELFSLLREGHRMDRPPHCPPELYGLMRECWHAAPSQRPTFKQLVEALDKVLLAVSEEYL

EphB2 = target: T4, EphB2 (Homo sapiens, UniProt P29323); details: proteomic and cellular screening approaches ref 10, 9; cited from earlier work
T4 sequence (P29323 19-1055): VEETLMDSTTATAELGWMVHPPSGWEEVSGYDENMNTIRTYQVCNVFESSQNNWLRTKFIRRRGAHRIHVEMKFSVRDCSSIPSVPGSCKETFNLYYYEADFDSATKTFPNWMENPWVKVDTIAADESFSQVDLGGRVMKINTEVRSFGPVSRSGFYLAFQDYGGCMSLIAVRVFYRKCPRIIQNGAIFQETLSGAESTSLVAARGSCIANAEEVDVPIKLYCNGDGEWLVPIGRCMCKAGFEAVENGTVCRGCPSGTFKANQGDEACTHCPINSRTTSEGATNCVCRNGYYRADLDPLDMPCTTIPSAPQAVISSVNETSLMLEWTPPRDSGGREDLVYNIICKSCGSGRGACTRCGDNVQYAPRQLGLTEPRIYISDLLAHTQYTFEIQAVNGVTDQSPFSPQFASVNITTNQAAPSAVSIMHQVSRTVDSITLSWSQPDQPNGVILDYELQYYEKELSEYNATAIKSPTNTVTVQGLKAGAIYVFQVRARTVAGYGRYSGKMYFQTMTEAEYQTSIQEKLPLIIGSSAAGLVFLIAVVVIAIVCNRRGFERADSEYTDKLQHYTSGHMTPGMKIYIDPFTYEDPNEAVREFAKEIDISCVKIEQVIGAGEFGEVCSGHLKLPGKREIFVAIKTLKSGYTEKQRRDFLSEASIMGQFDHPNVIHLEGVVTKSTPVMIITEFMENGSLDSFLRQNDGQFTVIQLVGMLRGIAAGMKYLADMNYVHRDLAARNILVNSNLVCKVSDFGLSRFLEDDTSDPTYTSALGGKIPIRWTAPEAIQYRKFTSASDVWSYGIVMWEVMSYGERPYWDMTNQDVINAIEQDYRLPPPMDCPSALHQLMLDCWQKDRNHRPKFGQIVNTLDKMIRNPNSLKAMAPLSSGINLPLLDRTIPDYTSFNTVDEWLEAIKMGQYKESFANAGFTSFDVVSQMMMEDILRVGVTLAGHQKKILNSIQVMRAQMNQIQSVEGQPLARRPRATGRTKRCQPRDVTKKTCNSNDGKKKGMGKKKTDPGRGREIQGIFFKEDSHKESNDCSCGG

[2] = test system: Bcr-Abl threonine to isoleucine gatekeeper substitution; details: threonine to isoleucine substitution of the gatekeeper position ref 21; cited from earlier work

EphA7, sequence (Q15375 28-998, species assumed): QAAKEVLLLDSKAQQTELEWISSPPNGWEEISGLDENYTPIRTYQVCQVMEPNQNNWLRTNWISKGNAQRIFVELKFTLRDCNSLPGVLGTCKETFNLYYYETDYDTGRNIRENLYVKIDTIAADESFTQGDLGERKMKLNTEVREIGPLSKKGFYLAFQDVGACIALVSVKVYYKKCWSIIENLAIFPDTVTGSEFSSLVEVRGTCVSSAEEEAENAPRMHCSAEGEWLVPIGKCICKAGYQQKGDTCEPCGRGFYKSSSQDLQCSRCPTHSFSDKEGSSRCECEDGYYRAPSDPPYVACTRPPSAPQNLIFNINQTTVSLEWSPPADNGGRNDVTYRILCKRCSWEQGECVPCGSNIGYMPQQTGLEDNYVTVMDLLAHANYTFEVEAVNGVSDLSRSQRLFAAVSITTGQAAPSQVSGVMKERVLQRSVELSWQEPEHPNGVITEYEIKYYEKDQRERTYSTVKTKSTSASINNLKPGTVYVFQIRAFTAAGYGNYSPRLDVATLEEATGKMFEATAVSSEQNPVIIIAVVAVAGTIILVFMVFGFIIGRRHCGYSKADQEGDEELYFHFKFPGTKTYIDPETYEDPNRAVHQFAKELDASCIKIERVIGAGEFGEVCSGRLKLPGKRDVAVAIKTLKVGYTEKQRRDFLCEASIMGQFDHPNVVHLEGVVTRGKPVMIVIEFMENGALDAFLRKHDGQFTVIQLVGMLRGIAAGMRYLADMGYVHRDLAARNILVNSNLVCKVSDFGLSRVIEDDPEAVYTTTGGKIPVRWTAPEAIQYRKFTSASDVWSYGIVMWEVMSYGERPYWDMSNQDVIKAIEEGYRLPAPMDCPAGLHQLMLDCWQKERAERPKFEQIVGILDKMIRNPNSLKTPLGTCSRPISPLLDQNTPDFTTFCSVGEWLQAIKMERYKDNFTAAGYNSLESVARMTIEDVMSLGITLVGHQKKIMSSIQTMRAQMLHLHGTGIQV

In the case of `Cc1cn(-c2cc(NC(=O)c3ccc(C)c(NC(=O)c4ccno4)c3)cc(C(F)(F)F)c2)cn1` [Compound 6], the “inhibition of EphA7” value (EphA7) is reported as “not inhibited”, the “inhibition of EphA6” value (EphA6) is reported as “not inhibited” and the “cellular activity against Src-family kinases (Tel-Src)” value (Tel-Src) is reported as “did not exhibit significant cellular activity”. The “cellular activity against b-raf” value (b-raf) was “did not exhibit significant cellular activity”, the “selectivity profile (binding to kinases)” value [1] was “binding to a common set of kinases” and the “cellular activity against Src-family kinases (Tel-Lyn)” value (Tel-Lyn) was “did not exhibit significant cellular activity”. For the same compound, the “inhibition of EphB1” value (EphB1) was “not inhibited”.
With `CCN1CCN(Cc2ccc(NC(=O)c3ccc(C)c(NC(=O)c4cncc(-c5cccs5)c4)c3)cc2C(F)(F)F)CC1` [Compound 7] the EC50 (Bcr-Abl; Ba/F3 cells transformed with Bcr-Abl) was under 0.5 µM, the “cross reactivity with Bcr-Abl” value (Bcr-Abl) was “cross reactivity” and the EC50 (Tel-Src) was under 0.5 µM. For the same compound, the EC50 (Tel fusion of EphA3) was under 0.5 µM, the “selectivity profile (binding to kinases)” value [1] was “inhibited all these kinases and many more” and the EC50 (Tel-Lyn; Ba/F3 cells transformed with Tel fusion of Lyn) was under 0.5 µM.
In the case of `Cc1ccc(C(=O)Nc2cccc(C(F)(F)F)c2)cc1Nc1ccc2occc(=O)c2c1` [Compound 8], the “inhibition of EphA7” value (EphA7) is reported as “not inhibited”, the “cross reactivity with Bcr-Abl” value (Bcr-Abl) is reported as “cross reactivity” and the “inhibition of EphA6” value (EphA6) is reported as “not inhibited”. The “selectivity profile (binding to kinases)” value [1] was “binding to a common set of kinases” and the “inhibition of EphB1” value (EphB1) was “not inhibited”.
In the case of `Cc1ccc(C(=O)Nc2cccc(C(F)(F)F)c2)cc1Nc1cncc(C(N)=O)c1` [Compound 9], the “affinity for EphA7” value (EphA7) is reported as “relatively low affinity”, the “inhibition of EphA7” value (EphA7) is reported as “not inhibited” and the “selectivity and potency (IC50)” value (Eph-family kinases) is reported as “good selectivity for Eph-family kinases with moderate potency”. For the same compound, the “inhibition of EphA6” value (EphA6) was “not inhibited”, the “cellular activity against Src-family kinases (Tel-Src)” value (Tel-Src) was “did not exhibit significant cellular activity” and the “cellular activity against b-raf” value (b-raf) was “did not exhibit significant cellular activity”. For the same compound, the “selectivity profile (binding to kinases)” value [1] was “binding to a common set of kinases”, the “cellular activity against Src-family kinases (Tel-Lyn)” value (Tel-Lyn) was “did not exhibit significant cellular activity” and the “inhibition of EphB1” value (EphB1) was “not inhibited”.
For `Cc1ccc(C(=O)Nc2cccc(C(F)(F)F)c2)cc1Nc1[nH]cnc2ncnc1-2` [Compound 10], the “cross reactivity with FGFR2” value (FGFR2) was “cross reactivity”, the “cross reactivity with FGFR3” value (FGFR3) was “cross reactivity” and the “cross reactivity with FGFR4” value (FGFR4) was “cross reactivity”.
For `Cc1nc(Nc2ncc(C(=O)Nc3c(C)cccc3Cl)s2)cc(N2CCN(CCO)CC2)n1` [dasatinib], the EphB2 as target (EphB2) is given as “identified as a target”.
In the case of `Cc1cn(-c2cc(NC(=O)c3ccc(C)c(Nc4nccc(-c5cccnc5)n4)c3)cc(C(F)(F)F)c2)cn1` [nilotinib], the “inhibition of Bcr-Abl gatekeeper mutation” value [2] is given as “not inhibited” and the EphB2 as target (EphB2) is given as “identified as a target”.
